# Assay results published in the NIST ThermoML archive (doi:10.1016/j.fluid.2004.10.028).
# Numbers after ± are expanded uncertainties.
# Test: wn = mass fraction of the nth substance listed
# Settings: Liquid, Capillary tube (Ostwald / Ubbelohde) method
structure (smiles),measurement,setting,value
O=S(=O)([O-])[O-].[Na+].[Na+] [sodium sulfate] + O,viscosity,"348.15 K, 40000 kPa, w1 = 0.015",0.4087 ± 0.013 mPa·s
same,viscosity,"348.35 K, 100 kPa, w1 = 0.03",0.4107 ± 0.013 mPa·s
same,viscosity,"348.35 K, 10000 kPa, w1 = 0.03",0.4134 ± 0.013 mPa·s
same,viscosity,"348.35 K, 20000 kPa, w1 = 0.03",0.4169 ± 0.013 mPa·s
same,viscosity,"348.35 K, 30000 kPa, w1 = 0.03",0.42 ± 0.013 mPa·s
same,viscosity,"348.35 K, 40000 kPa, w1 = 0.03",0.4225 ± 0.013 mPa·s
same,viscosity,"348.42 K, 100 kPa, w1 = 0.1",0.5232 ± 0.016 mPa·s
same,viscosity,"348.42 K, 10000 kPa, w1 = 0.1",0.5267 ± 0.016 mPa·s
same,viscosity,"348.42 K, 20000 kPa, w1 = 0.1",0.5294 ± 0.016 mPa·s
same,viscosity,"348.42 K, 30000 kPa, w1 = 0.1",0.534 ± 0.016 mPa·s
same,viscosity,"348.42 K, 40000 kPa, w1 = 0.1",0.5399 ± 0.017 mPa·s
same,viscosity,"348.6 K, 100 kPa, w1 = 0.26",1.01 ± 0.031 mPa·s
same,viscosity,"348.6 K, 10000 kPa, w1 = 0.26",1.017 ± 0.031 mPa·s
same,viscosity,"348.6 K, 20000 kPa, w1 = 0.26",1.023 ± 0.031 mPa·s
same,viscosity,"348.6 K, 30000 kPa, w1 = 0.26",1.029 ± 0.032 mPa·s
same,viscosity,"348.6 K, 40000 kPa, w1 = 0.26",1.041 ± 0.032 mPa·s
same,viscosity,"348.7 K, 100 kPa, w1 = 0.15",0.6292 ± 0.019 mPa·s
same,viscosity,"348.7 K, 100 kPa, w1 = 0.23",0.8925 ± 0.028 mPa·s
same,viscosity,"348.7 K, 10000 kPa, w1 = 0.15",0.6336 ± 0.019 mPa·s
same,viscosity,"348.7 K, 10000 kPa, w1 = 0.23",0.8987 ± 0.028 mPa·s
same,viscosity,"348.7 K, 20000 kPa, w1 = 0.15",0.6367 ± 0.02 mPa·s
same,viscosity,"348.7 K, 20000 kPa, w1 = 0.23",0.9053 ± 0.028 mPa·s
same,viscosity,"348.7 K, 30000 kPa, w1 = 0.15",0.6418 ± 0.02 mPa·s
same,viscosity,"348.7 K, 30000 kPa, w1 = 0.23",0.9128 ± 0.028 mPa·s
same,viscosity,"348.7 K, 40000 kPa, w1 = 0.15",0.6473 ± 0.02 mPa·s
same,viscosity,"348.7 K, 40000 kPa, w1 = 0.23",0.92 ± 0.028 mPa·s
same,viscosity,"370.4 K, 10000 kPa, w1 = 0.23",0.6799 ± 0.021 mPa·s
same,viscosity,"370.4 K, 20000 kPa, w1 = 0.23",0.6864 ± 0.021 mPa·s
same,viscosity,"370.4 K, 30000 kPa, w1 = 0.23",0.6905 ± 0.021 mPa·s
same,viscosity,"370.4 K, 40000 kPa, w1 = 0.23",0.6997 ± 0.022 mPa·s
same,viscosity,"371.95 K, 10000 kPa, w1 = 0.05",0.3317 ± 0.01 mPa·s
same,viscosity,"371.95 K, 20000 kPa, w1 = 0.05",0.335 ± 0.01 mPa·s
same,viscosity,"371.95 K, 30000 kPa, w1 = 0.05",0.3389 ± 0.01 mPa·s
same,viscosity,"371.95 K, 40000 kPa, w1 = 0.05",0.343 ± 0.011 mPa·s
same,viscosity,"372.4 K, 10000 kPa, w1 = 0.1",0.3948 ± 0.012 mPa·s
same,viscosity,"372.4 K, 20000 kPa, w1 = 0.1",0.3979 ± 0.012 mPa·s
same,viscosity,"372.4 K, 30000 kPa, w1 = 0.1",0.3998 ± 0.012 mPa·s
same,viscosity,"372.4 K, 40000 kPa, w1 = 0.1",0.4062 ± 0.013 mPa·s
same,viscosity,"372.8 K, 10000 kPa, w1 = 0.15",0.4705 ± 0.015 mPa·s
same,viscosity,"372.8 K, 20000 kPa, w1 = 0.15",0.4743 ± 0.015 mPa·s
same,viscosity,"372.8 K, 30000 kPa, w1 = 0.15",0.4795 ± 0.015 mPa·s
same,viscosity,"372.8 K, 40000 kPa, w1 = 0.15",0.484 ± 0.015 mPa·s
same,viscosity,"372.9 K, 10000 kPa, w1 = 0.03",0.3096 ± 0.0096 mPa·s
same,viscosity,"372.9 K, 20000 kPa, w1 = 0.03",0.3124 ± 0.0097 mPa·s
same,viscosity,"372.9 K, 30000 kPa, w1 = 0.03",0.3164 ± 0.0098 mPa·s
same,viscosity,"372.9 K, 40000 kPa, w1 = 0.03",0.3186 ± 0.0099 mPa·s
same,viscosity,"373.8 K, 10000 kPa, w1 = 0.015",0.2947 ± 0.0091 mPa·s
same,viscosity,"373.8 K, 20000 kPa, w1 = 0.015",0.2994 ± 0.0093 mPa·s
same,viscosity,"373.8 K, 30000 kPa, w1 = 0.015",0.3034 ± 0.0094 mPa·s
same,viscosity,"373.8 K, 40000 kPa, w1 = 0.015",0.3065 ± 0.0095 mPa·s
same,viscosity,"373.9 K, 10000 kPa, w1 = 0.07",0.3482 ± 0.011 mPa·s
same,viscosity,"373.9 K, 20000 kPa, w1 = 0.07",0.3508 ± 0.011 mPa·s
same,viscosity,"373.9 K, 30000 kPa, w1 = 0.07",0.3546 ± 0.011 mPa·s
same,viscosity,"373.9 K, 40000 kPa, w1 = 0.07",0.359 ± 0.011 mPa·s
same,viscosity,"374.5 K, 10000 kPa, w1 = 0.2",0.5699 ± 0.017 mPa·s
same,viscosity,"374.5 K, 20000 kPa, w1 = 0.2",0.5743 ± 0.018 mPa·s
same,viscosity,"374.5 K, 30000 kPa, w1 = 0.2",0.5799 ± 0.018 mPa·s
same,viscosity,"374.5 K, 40000 kPa, w1 = 0.2",0.5875 ± 0.018 mPa·s
same,viscosity,"375.2 K, 10000 kPa, w1 = 0.26",0.7321 ± 0.023 mPa·s
same,viscosity,"375.2 K, 20000 kPa, w1 = 0.26",0.7395 ± 0.023 mPa·s
same,viscosity,"375.2 K, 30000 kPa, w1 = 0.26",0.7436 ± 0.023 mPa·s
same,viscosity,"375.2 K, 40000 kPa, w1 = 0.26",0.7535 ± 0.023 mPa·s
same,viscosity,"395.4 K, 10000 kPa, w1 = 0.15",0.3731 ± 0.011 mPa·s
same,viscosity,"395.4 K, 20000 kPa, w1 = 0.15",0.3767 ± 0.012 mPa·s
same,viscosity,"395.4 K, 30000 kPa, w1 = 0.15",0.381 ± 0.012 mPa·s
same,viscosity,"395.4 K, 40000 kPa, w1 = 0.15",0.386 ± 0.012 mPa·s
same,viscosity,"395.62 K, 10000 kPa, w1 = 0.05",0.2626 ± 0.0081 mPa·s
same,viscosity,"395.62 K, 20000 kPa, w1 = 0.05",0.2668 ± 0.0083 mPa·s
same,viscosity,"395.62 K, 30000 kPa, w1 = 0.05",0.2695 ± 0.0084 mPa·s
same,viscosity,"395.62 K, 40000 kPa, w1 = 0.05",0.2716 ± 0.0084 mPa·s
same,viscosity,"397.1 K, 10000 kPa, w1 = 0.07",0.2772 ± 0.0086 mPa·s
same,viscosity,"397.1 K, 20000 kPa, w1 = 0.07",0.2799 ± 0.0087 mPa·s
same,viscosity,"397.1 K, 30000 kPa, w1 = 0.07",0.2834 ± 0.0088 mPa·s
same,viscosity,"397.1 K, 40000 kPa, w1 = 0.07",0.287 ± 0.0089 mPa·s
same,viscosity,"397.21 K, 10000 kPa, w1 = 0.2",0.4505 ± 0.014 mPa·s
same,viscosity,"397.21 K, 20000 kPa, w1 = 0.2",0.454 ± 0.014 mPa·s
same,viscosity,"397.21 K, 30000 kPa, w1 = 0.2",0.4598 ± 0.014 mPa·s
same,viscosity,"397.21 K, 40000 kPa, w1 = 0.2",0.4654 ± 0.014 mPa·s
same,viscosity,"398.4 K, 10000 kPa, w1 = 0.03",0.2422 ± 0.0075 mPa·s
same,viscosity,"398.4 K, 20000 kPa, w1 = 0.03",0.2468 ± 0.0077 mPa·s
same,viscosity,"398.4 K, 30000 kPa, w1 = 0.03",0.2494 ± 0.0077 mPa·s
same,viscosity,"398.4 K, 40000 kPa, w1 = 0.03",0.251 ± 0.0078 mPa·s
same,viscosity,"398.72 K, 10000 kPa, w1 = 0.1",0.3052 ± 0.0094 mPa·s
same,viscosity,"398.72 K, 20000 kPa, w1 = 0.1",0.3094 ± 0.0096 mPa·s
same,viscosity,"398.72 K, 30000 kPa, w1 = 0.1",0.3132 ± 0.0097 mPa·s
same,viscosity,"398.72 K, 40000 kPa, w1 = 0.1",0.3159 ± 0.0098 mPa·s
same,viscosity,"398.8 K, 10000 kPa, w1 = 0.23",0.5081 ± 0.016 mPa·s
same,viscosity,"398.8 K, 20000 kPa, w1 = 0.23",0.5124 ± 0.016 mPa·s
same,viscosity,"398.8 K, 30000 kPa, w1 = 0.23",0.5185 ± 0.016 mPa·s
same,viscosity,"398.8 K, 40000 kPa, w1 = 0.23",0.5253 ± 0.016 mPa·s
same,viscosity,"399.01 K, 10000 kPa, w1 = 0.015",0.2321 ± 0.0072 mPa·s
same,viscosity,"399.01 K, 20000 kPa, w1 = 0.015",0.2367 ± 0.0074 mPa·s
same,viscosity,"399.01 K, 30000 kPa, w1 = 0.015",0.2398 ± 0.0075 mPa·s
same,viscosity,"399.01 K, 40000 kPa, w1 = 0.015",0.2412 ± 0.0075 mPa·s
same,viscosity,"399.4 K, 10000 kPa, w1 = 0.26",0.5695 ± 0.017 mPa·s
same,viscosity,"399.4 K, 20000 kPa, w1 = 0.26",0.5739 ± 0.018 mPa·s
same,viscosity,"399.4 K, 30000 kPa, w1 = 0.26",0.58 ± 0.018 mPa·s
same,viscosity,"399.4 K, 40000 kPa, w1 = 0.26",0.5895 ± 0.018 mPa·s
same,viscosity,"420.3 K, 10000 kPa, w1 = 0.2",0.3686 ± 0.011 mPa·s
same,viscosity,"420.3 K, 20000 kPa, w1 = 0.2",0.3729 ± 0.011 mPa·s
same,viscosity,"420.3 K, 30000 kPa, w1 = 0.2",0.3775 ± 0.012 mPa·s
same,viscosity,"420.3 K, 40000 kPa, w1 = 0.2",0.3826 ± 0.012 mPa·s
same,viscosity,"421.3 K, 10000 kPa, w1 = 0.15",0.2998 ± 0.0093 mPa·s
same,viscosity,"421.3 K, 20000 kPa, w1 = 0.15",0.3027 ± 0.0094 mPa·s
same,viscosity,"421.3 K, 30000 kPa, w1 = 0.15",0.3087 ± 0.0095 mPa·s
same,viscosity,"421.3 K, 40000 kPa, w1 = 0.15",0.3114 ± 0.0096 mPa·s
same,viscosity,"421.4 K, 10000 kPa, w1 = 0.1",0.2535 ± 0.0079 mPa·s
same,viscosity,"421.4 K, 20000 kPa, w1 = 0.1",0.2565 ± 0.008 mPa·s
same,viscosity,"421.4 K, 30000 kPa, w1 = 0.1",0.2596 ± 0.0081 mPa·s
same,viscosity,"421.4 K, 40000 kPa, w1 = 0.1",0.2635 ± 0.0082 mPa·s
